According to PubChem BioAssay AID276 (DTP/NCI, 2004):
“And” between values parts separate entries of the source, which are not always exact repeats. Equal values may be shown once. Inconclusive results and toxic doses are left out. How the source made its calls: active means survival T/C of 150% or more; inactive means T/C below 125% in these data.

Tested on: B6C3F1 mice, Lewis lung carcinoma iv, survival T/C
Experiment: NCI In Vivo Anticancer Drug Screen. Data for tumor model Lewis Lung Carcinoma (intravenous) in B6C3F1 mice
Settings: endpoint: median survival time, higher = longer survival
Method in brief: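 Read-out is survival, expressed as the treated-group measurement over the vehicle control-group measurement. Animals bore a transplantable tumor and were given compound.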

[1] = dose: 1.56 mg/kg/injection, schedule: Q01DX009 (ip), vehicle: saline with Tween-80
[2] = dose: 3.12 mg/kg/injection, schedule: Q01DX009 (ip), vehicle: saline with Tween-80
[3] = dose: 6.25 mg/kg/injection, schedule: Q01DX009 (ip), vehicle: saline with Tween-80
[4] = dose: 12.5 mg/kg/injection, schedule: Q01DX009 (ip), vehicle: saline with Tween-80
[5] = dose: 25.0 mg/kg/injection, schedule: Q01DX009 (ip), vehicle: saline with Tween-80
[6] = dose: 1.56 mg/kg/injection, schedule: Q01DX009 (ip), vehicle: saline
[7] = dose: 3.12 mg/kg/injection, schedule: Q01DX009 (ip), vehicle: saline
[8] = dose: 6.25 mg/kg/injection, schedule: Q01DX009 (ip), vehicle: saline
[9] = dose: 12.5 mg/kg/injection, schedule: Q01DX009 (ip), vehicle: saline
[10] = dose: 25.0 mg/kg/injection, schedule: Q01DX009 (ip), vehicle: saline
[11] = dose: 50.0 mg/kg/injection, schedule: Q01DX009 (ip), vehicle: saline
[12] = dose: 100.0 mg/kg/injection, schedule: Q01DX009 (ip), vehicle: saline
[13] = dose: 200.0 mg/kg/injection, schedule: Q01DX009 (ip), vehicle: saline
[14] = dose: 400.0 mg/kg/injection, schedule: Q01DX009 (ip), vehicle: saline
[15] = dose: 800.0 mg/kg/injection, schedule: Q01DX009 (ip), vehicle: saline
[16] = dose: 50.0 mg/kg/injection, schedule: Q01DX009 (ip), vehicle: saline with Tween-80
[17] = dose: 100.0 mg/kg/injection, schedule: Q01DX009 (ip), vehicle: saline with Tween-80
[18] = dose: 200.0 mg/kg/injection, schedule: Q01DX009 (ip), vehicle: saline with Tween-80
[19] = dose: 12.5 mg/kg/injection, schedule: Q01DX009 (ip), vehicle: Klucel (hydroxypropylcellulose) (HPC)
[20] = dose: 25.0 mg/kg/injection, schedule: Q01DX009 (ip), vehicle: Klucel (hydroxypropylcellulose) (HPC)
[21] = dose: 50.0 mg/kg/injection, schedule: Q01DX009 (ip), vehicle: Klucel (hydroxypropylcellulose) (HPC)
[22] = dose: 100.0 mg/kg/injection, schedule: Q01DX009 (ip), vehicle: Klucel (hydroxypropylcellulose) (HPC)
[23] = dose: 400.0 mg/kg/injection, schedule: Q01DX009 (ip), vehicle: Klucel (hydroxypropylcellulose) (HPC)
[24] = dose: 5.0 mg/kg/injection, schedule: Q01DX009 (ip), vehicle: saline with Tween-80
[25] = dose: 10.0 mg/kg/injection, schedule: Q01DX009 (ip), vehicle: saline with Tween-80

Measured: T/C

CCOc1cc2c(cc1C(C)c1ccc(OC)cc1)OCO2 (configuration not stated)
inactive: dose: 12.5 mg/kg/injection, schedule: Q01DX009 (ip), vehicle: distilled water + Tween-80 + alcohol 104 % of control | dose: 12.5 mg/kg/injection, schedule: Q01DX009 (ip), vehicle: distilled water + alcohol 106 % of control | dose: 25.0 mg/kg/injection, schedule: Q01DX009 (ip), vehicle: distilled water + Tween-80 + alcohol 103 % of control | dose: 25.0 mg/kg/injection, schedule: Q01DX009 (ip), vehicle: distilled water + alcohol 104 % of control | dose: 50.0 mg/kg/injection, schedule: Q01DX009 (ip), vehicle: DMSO 102 % of control | dose: 50.0 mg/kg/injection, schedule: Q01DX009 (ip), vehicle: distilled water + Tween-80 + alcohol 103 % of control | dose: 50.0 mg/kg/injection, schedule: Q01DX009 (ip), vehicle: distilled water + alcohol 112 % of control | dose: 100.0 mg/kg/injection, schedule: Q01DX009 (ip), vehicle: distilled water + alcohol 108 % of control | dose: 200.0 mg/kg/injection, schedule: Q01DX009 (ip), vehicle: distilled water + alcohol 110 % of control

CNC(=O)Oc1ccc[nH]c1=O
inactive: dose: 16.0 mg/kg/injection, schedule: Q01DX009 (ip), vehicle: saline with Tween-80 101 % of control | dose: 32.0 mg/kg/injection, schedule: Q01DX009 (ip), vehicle: saline with Tween-80 103 % of control | dose: 64.0 mg/kg/injection, schedule: Q01DX009 (ip), vehicle: saline with Tween-80 104 % of control | dose: 128.0 mg/kg/injection, schedule: Q01DX009 (ip), vehicle: saline with Tween-80 90 % of control | dose: 256.0 mg/kg/injection, schedule: Q01DX009 (ip), vehicle: saline with Tween-80 94 % of control

NC(=S)N/N=C\c1ncccc1OCc1cccc(N)c1
inactive: dose: 12.5 mg/kg/injection, schedule: Q01DX009 (ip), vehicle: distilled water + Tween-80 103 % of control | dose: 25.0 mg/kg/injection, schedule: Q01DX009 (ip), vehicle: distilled water + Tween-80 109 % of control | dose: 50.0 mg/kg/injection, schedule: Q01DX009 (ip), vehicle: distilled water + Tween-80 109 % of control | dose: 100.0 mg/kg/injection, schedule: Q01DX009 (ip), vehicle: distilled water + Tween-80 102 % of control | dose: 200.0 mg/kg/injection, schedule: Q01DX009 (ip), vehicle: distilled water + Tween-80 121 % of control

O=[n+]1c2ccccc2n([O-])c2ccccc21.[Cl][Ni][Cl]
inactive: [1] 93 % of control | [2] 93 % of control | [3] 90 % of control | [4] 97 % of control | [5] 97 % of control

Brc1c(NC2=NCCN2)ccc2nccnc12
inactive: [6] 103 % of control | [7] 114 % of control | [8] 100 % of control | [9] 101 % of control | [10] 101 % of control | [11] 112 % of control

OC(C1CO1)C(O)C1CO1 (configuration not stated)
inactive: dose: 0.25 mg/kg/injection, schedule: Q01DX009 (ip), vehicle: saline 101 % of control | dose: 0.5 mg/kg/injection, schedule: Q01DX009 (ip), vehicle: saline 100 % of control | dose: 1.0 mg/kg/injection, schedule: Q01DX009 (ip), vehicle: saline 102 % of control | dose: 2.0 mg/kg/injection, schedule: Q01DX009 (ip), vehicle: saline 109 % of control

O=[N+]([O-])c1nccn1CC(O)CO (configuration not stated)
inactive: [9] 100 % of control | [10] 105 % of control | [11] 104 % of control | [12] 102 % of control | [13] 106 % of control | [14] 107 % of control

COC(=O)C(N)Cc1ccc(O)c(O)c1 (configuration not stated)
inactive: [9] 107 % of control | [10] 103 % of control | [11] 101 % of control | [12] 109 % of control | [13] 92 % of control | [14] 95 % of control | [15] 95 % of control

CC1=CC(C)(C)Nc2ccc(CSc3ccccc3)cc21
inactive: dose: 12.5 mg/kg/injection, schedule: Q01DX009 (ip), vehicle: saline + Tween-80 + alcohol 99 % of control | dose: 25.0 mg/kg/injection, schedule: Q01DX009 (ip), vehicle: saline + Tween-80 + alcohol 108 % of control | dose: 50.0 mg/kg/injection, schedule: Q01DX009 (ip), vehicle: saline + Tween-80 + alcohol 100 % of control | dose: 100.0 mg/kg/injection, schedule: Q01DX009 (ip), vehicle: saline + Tween-80 + alcohol 101 % of control | dose: 200.0 mg/kg/injection, schedule: Q01DX009 (ip), vehicle: saline + Tween-80 + alcohol 108 % of control | dose: 400.0 mg/kg/injection, schedule: Q01DX009 (ip), vehicle: saline + Tween-80 + alcohol 108 % of control

N=c1ccn2c(n1)OC1C(O)C(CO)OC12 (configuration not stated)
inactive: [10] 101 % of control | [11] 102 % of control | [12] 107 % of control

N=C(N)CCCCCCCCC(=N)N
inactive: dose: 0.79 mg/kg/injection, schedule: Q01DX009 (ip), vehicle: saline 112 % of control | [6] 119 % of control | [7] 112 % of control | [8] 124 % of control | dose: 12.5 mg/kg/injection, schedule: Q01DX001 (ip), vehicle: saline 97 % of control | [9] 115 % of control | dose: 25.0 mg/kg/injection, schedule: Q01DX001 (ip), vehicle: saline 103 % of control | dose: 50.0 mg/kg/injection, schedule: Q01DX001 (ip), vehicle: saline 107 % of control

O=CC=O
inactive: [3] 102 % of control | [4] 116 % of control | [5] 107 % of control | [16] 107 % of control | [17] 95 % of control | [18] 101 % of control

O=C(Nc1ccccc1C(=O)O)c1cc([N+](=O)[O-])cc([N+](=O)[O-])c1
inactive: [4] 96 % of control | [5] 91 % of control | [16] 102 % of control | [17] 102 % of control | [18] 95 % of control

Cn1c2ccccc2c2ccc3c(c21)C(=O)C=CC3=O
inactive: [1] 99 % of control | [2] 106 % of control | [3] 107 % of control | [4] 93 % of control and 101 % of control

Nc1n[nH]c(N)n1
inactive: [12] 109 % of control | [13] 109 % of control | [14] 106 % of control | [15] 115 % of control

O=C(O)C1(NO)CCCCC1
inactive: [19] 95 % of control and 106 % of control | [20] 101 % of control and 106 % of control | [21] 100 % of control and 101 % of control | [22] 102 % of control and 105 % of control | dose: 200.0 mg/kg/injection, schedule: Q01DX009 (ip), vehicle: Klucel (hydroxypropylcellulose) (HPC) 95 % of control and 108 % of control | [23] 97 % of control and 109 % of control

C[n+]1cccc(NC(=O)c2ccc(NC(=O)C34CCC(C(=O)Nc5ccc(C(=O)Nc6ccc[n+](C)c6)cc5)(CC3)CC4)cc2)c1
inactive: [24] 106 % of control | [25] 122 % of control

C(C#CCN1CCOCC1)#CCN1CCOCC1
inactive: dose: 6.25 mg/kg/injection, schedule: Q01DX009 (ip), vehicle: Klucel (hydroxypropylcellulose) (HPC) 108 % of control | [19] 101 % of control | [20] 102 % of control | [21] 100 % of control | [22] 102 % of control | [23] 106 % of control

CCN1/C(=C/C=C/C=C\C=C\c2sc3ccc4ccccc4c3[n+]2CC)Sc2ccc3ccccc3c21
inactive: dose: 1.25 mg/kg/injection, schedule: Q01DX009 (ip), vehicle: saline with Tween-80 104 % of control | dose: 2.5 mg/kg/injection, schedule: Q01DX009 (ip), vehicle: saline with Tween-80 100 % of control and 103 % of control | [24] 104 % of control | [25] 98 % of control | dose: 20.0 mg/kg/injection, schedule: Q01DX009 (ip), vehicle: saline with Tween-80 103 % of control
